One substance from US20160097044A1, “Antimicrobial Enzyme Fusions Reduce Resistance and Kill Intracellular Staphylococcus aureus” (The United States of America, as Represented by the …, priority 2014, published 2016) can be followed below.

In test [1] the test system is intracellular S. aureus strain UAMS-1 in primary mouse-derived osteoblasts (mOBs). The test can be described thus: Intracellular S. aureus eradication assay in murine osteoblasts. It counts as cell-based. Particulars: mOB, 5 μg/ml, 2 h. An excerpt:
FIGS. 5a-5e depict peptidoglycan hydrolase-protein transduction domain (PGH-PTD) eradication of intracellular S. aureus in cultured cells. Cultured cells were infected, treated with gentamicin to kill extracellular S. aureus, and then treated with the peptidoglycan hydrolases indicated. All results are standardized to the gentamicin (GENT) only control. Nomenclature of the peptidoglycan hydrolase constructs is as in FIG. 1. Asterisks indicate statistical significance detected with single factor ANOVA (α=0.05) with paired t-test posthoc analyses α=0.05 adjusted with Sidák correction for multiple comparisons (for all cases p<0.01). […] Error bars represent SEM. […] Yellow staining in the combined panel represents intracellular co-localization (in a single plane as determined by z-stack analysis) of both S. aureus and K-L-PTD1 (blue arrow). […]
Three similar intracellular S. aureus eradication assays from three different labs were optimized for (A) a cultured bovine mammary epithelial cell line (MAC-T, Nexia Biotechnologies, Quebec, Canada; Almeida, supra), (B) primary C57BL/6 mouse-derived osteoblasts (mOBs) (McCall et al. 2008. J. Bone Miner. Res. 23: 30-40) or (C) human brain microvascular endothelial cells (hBMEC; Stins, supra). […] The cell lysate was subjected to serial dilution plating, and the resultant CFUs were counted and normalized to the gentamicin control for each assay. […]

Test [2] deals with intracellular S. aureus strain UAMS-1 in murine calvaria. The test can be described thus: Ex vivo neonatal mouse calvaria intracellular eradication. The test is classed as cell-based. The protocol: Neonatal mouse whole calvaria were treated for 4 hours with chimeric peptidoglycan hydrolases or buffer alone, 24 hours post inoculation with GFP-expressing S. aureus. Calvaria were embedded in freeze media, sectioned, and subjected to fluorescence imaging. The image shown is a representative figure for triplicate sections of three separate calvaria. FIG. 8b depicts fluorescence intensity from these sections measured in ImageJ and defined as arbitrary fluorescence standardized to the untreated control. Error bars represent SEM of four replicate experiments. FIG. 8c depicts ex-vivo intracellular S. aureus eradication. Infected calvaria were homogenized and CFU were counted post treatment. Error bars represent SEM. FIG. 8d depicts a murine model of staphylococcal osteomyelitis. C57BL/6J mice were anesthetized and their femurs were surgically exposed. A trough was drilled through the bone cortex and the damaged bone sites were inoculated with 1×10^3 CFU S. aureus in agarose beads. After 24 hours, mice were treated (i.m. to site of infection) twice in a 24 h period with PBS or 5 mg/kg of triple fusion K-L or K-L-PTD1. The femurs were removed, homogenized, and plated to quantify the bacterial load. Bars indicate the average CFU recovered (N=6). […] Asterisks represent statistical significance as determined by one-way ANOVA followed by Tukey's posthoc test.
To examine the intracellular uptake and eradication in murine osteoblast-containing tissue samples, both ex vivo calvaria (skull cap), and in vivo femur injury models were tested. Calvaria were isolated from neonatal mice and infected with UAMS-1 strain of S. aureus (1×10^6 bacteria/calvaria) for 2 h at 37° C. in osteoblast growth medium in the absence of antibiotics. Following 3× washes with PBS, calvaria were exposed to 50 μg/ml of gentamicin for 15 min to kill extracellular bacteria and further cultured in gentamicin containing osteoblast growth media. After 24 h later, calvaria were treated with peptidoglycan hydrolases (5 μg/ml) or gentamicin only control for 2 h. Lysis buffer containing 0.05% trypsin and 0.25% Triton X-100 was used to homogenize the calvaria, the homogenates were quantitatively plated on LB agar plates, and the CFU were enumerated after 24 h. The data represents triplicate determinants of two separate experiments.
Calvaria were isolated, and infected as described above using GFP-tagged UAMS-1 strain of S. aureus. Two hours post-infection, calvaria were washed with PBS followed by a 15 minutes treatment with 50 μg/ml gentamicin to kill extracellular bacteria. 24 hours post-infection, calvaria were treated with 5 μg/ml peptidoglycan hydrolases or gentamicin only control for two hours and embedded in Tissue-Tek O.C.T compound (Sakura, Torrance, Calif.). […]

Consider “K-L: both LysK lytic domains fused to the N-terminus of lysostaphin; SEQ ID NO:5, protein SEQ ID NO:6”, for which the “intracellular S. aureus CFUs relative to gentamicin only control” value in test [1] is listed as “reduced the intracellular bacteria recovered”. In addition, the “live bacteria (CFU) recovered from calvaria” value in test [2] (5 μg/ml for 2 h, homogenized calvaria) is on record as “able to reduce the number of live bacteria recovered from sectioned calvaria”. In addition, the “elimination of GFP-labeled intracellular S. aureus (fluorescence)” value in test [2] (5 μg/ml, 24 hours post-infection, sectioned calvaria) is listed as “able to eliminate GFP-labeled intracellular S. aureus strain UAMS-1 from murine calvaria”.
